Where two headings read alike, the source gives them in different places.
Legend:
[1] = system: L. donovani (MHOM/ET/67/L82); details: cited from earlier work
[2] = system: L. guyanensis (MHOM/PE/02/PER 054/0); experiment: Leishmania clinical isolate panel screen (drug-susceptibility assay in infected macrophages); assay type: cell-based; details: Macrophage, Cutaneous leishmaniasis, L. guyanensis (MHOM/PE/02/PER 054/0), Miltefosine: mean only, read-out: IC50 Mean ± SEM
Procedure: (§1) Female Swiss mice (BW ~20 g) were purchased from a commercial source (Janvier France) and kept in quarantine for 1 week. The animals were housed in group and drinking water was available ad libitum. To harvest peritoneal macrophages, the mice were first stimulated by intraperitoneal injection of 1 mL of starch solution (2% in PBS). After 24 h, macrophages were collected in RPMI-1640 supplemented with 5% iFCS, 2% penicillin-streptomycin and 1% L-glutamine by peritoneal lavage and immediately distributed in a 96-well plate at a concentration of 30,000 cells/well. The cells were incubated for 24 h at 37°C and 5 % CO2 to allow cell attachment.
(§2) Strains of L. donovani, L. infantum, L. major, L. tropica, L. guyanensis and L. panamensis were selected based on their intrinsic susceptibility to the commonly used reference drugs and their geographic distribution. All strains were cultivated in HOMEM promastigote medium and sub-cultured twice weekly. Passage numbers were kept as low as possible to avoid loss of virulence. For infection of the macrophages, metacyclic promastigote cultures were examined light microscopically for the abundant presence of metacyclic promastigotes. Upon counting, promastigotes were centrifuged and diluted in RPMI-1640 to the desired concentration. The infection ratio varied based on the ability of the strain to adequately infect the host cells and ranged from 5 to 20 promastigotes per macrophage. Macrophages were infected by adding 100 µL promastigote suspension per well onto the macrophages. When ex vivo amastigotes were available (only for two lab strains), macrophages were infected at a ratio of 10/1.
(§3) Stock solutions of the DNDi lead compounds were prepared in 100% DMSO at 20 mM and robotically further diluted in water. Miltefosine (MIL) was included as reference and formulated in water at a concentration of 20 mM. The medium was discarded from the plates to remove any residual non-internalized promastigotes and replaced by fresh RPMI-1640 medium supplemented with iFBS, P/S and L-glutamine (as described above). Next, a 2-fold dilution series of each lead compound was added to the plate with 64 µM as the highest in test-concentration for the DNDi leads and 40 µM for MIL. The 96-well plates were further incubated at 34-37°C and 5% CO2. For staining, the culture medium was discarded, and the plates were left to dry for 2-4 hours. The cells were then fixated with methanol for 10 minutes and stained with a 1/5 Giemsa dilution in water for 15 minutes. The percentage infection-inhibition compared to a positive control (untreated infected macrophages) was microscopically determined and used to calculate the IC50 and IC90 values.

[3] = system: L. donovani (MHOM/ NP/2003/BPK282/0-cl4); experiment: as above; assay type: cell-based; details: Macrophage, read-out: IC50 Mean ± SEM
Procedure: as §1, §2, §3

[4] = system: L. infantum (MHOM/ES/2016/LLM-2346); experiment: as above; assay type: cell-based; details: Macrophage, Visceral leishmaniasis, L. infantum (MHOM/ES/2016/LLM-2346), Miltefosine: mean only, read-out: IC50 Mean ± SEM
Procedure: as §1, §2, §3

[5] = system: L. major (MHOM/SA/85/JISH118); experiment: as above; assay type: cell-based; details: Macrophage, Cutaneous leishmaniasis, L. major (MHOM/SA/85/JISH118), Miltefosine: mean only, read-out: IC50 Mean ± SEM
Procedure: as §1, §2, §3

[6] = system: L. infantum (MHOM/FR/96/LEM3323-cl4); experiment: as above; assay type: cell-based; details: Macrophage, Visceral leishmaniasis, L. infantum (MHOM/FR/96/LEM3323-cl4), Miltefosine: mean only, read-out: IC50 Mean ± SEM
Procedure: as §1, §2, §3

[7] = system: L. tropica (MHOM/AF/2015/HTD7); experiment: as above; assay type: cell-based; details: Macrophage, Cutaneous leishmaniasis, L. tropica (MHOM/AF/2015/HTD7), Miltefosine: mean only, read-out: IC50 Mean ± SEM
Procedure: as §1, §2, §3

[8] = system: L. infantum (MHOM/BR/2007/WC (L3015)); experiment: as above; assay type: cell-based; details: Macrophage, Visceral leishmaniasis, L. infantum (MHOM/BR/2007/WC (L3015)), Miltefosine: mean only, read-out: IC50 Mean ± SEM
Procedure: as §1, §2, §3

[9] = system: L. major (MHOM/IL/81/Friedlin); experiment: as above; assay type: cell-based; details: Macrophage, Cutaneous leishmaniasis, L. major (MHOM/IL/81/Friedlin), Miltefosine: mean only, read-out: IC50 Mean ± SEM
Procedure: as §1, §2, §3

[10] = system: L. panamensis (MHOM/PA/71/LS94); experiment: as above; assay type: cell-based; details: Macrophage, Cutaneous leishmaniasis, L. panamensis (MHOM/PA/71/LS94), Miltefosine: mean only, read-out: IC50 Mean ± SEM
Procedure: as §1, §2, §3

[11] = system: L. infantum (LEM3323-cl4 PMM); experiment: as above; assay type: cell-based; details: Macrophage, read-out: IC50 Mean ± SEM
Procedure: as §1, §2, §3

[12] = system: L. infantum (LEM3323-cl4 MIL); experiment: as above; assay type: cell-based; details: Macrophage, read-out: IC50 Mean ± SEM
Procedure: as §1, §2, §3

[13] = system: L. donovani (MHOM/NP/03/BPK275/0-cl18); experiment: as above; assay type: cell-based; details: Macrophage, Visceral leishmaniasis, L. donovani (MHOM/NP/03/BPK275/0-cl18), Miltefosine: mean only, read-out: IC50 Mean ± SEM
Procedure: as §1, §2, §3

[14] = system: L. infantum (MHOM/MA/67/ITMAP263); details: cited from earlier work
L. infantum = experiment: VL hamster model in vivo efficacy (reduction of parasite load vs. control); details: 40 mg/kg qd, 5 days
Procedure: The in vivo efficacy of the compounds C1, C3, C4, and miltefosine was evaluated in a VL hamster model infected with L. infantum. The in vivo studies were performed in accordance with the methods described by Van den Kerkhof et al. [IJP: Drugs and Drug Resistance, 2018, 8, Issue 1, 81-86]. Following treatment, the reduction of parasite load vs. control was determined in different body compartments (liver, spleen, and bone marrow) with results presented in Table 4. Table 4. Hamster in vivo efficacy

MRC-5SV2 cells = details: printed in SI column; data from IJP: Drugs and Drug Resistance, 2018, 8, 81-86; cited from earlier work

SMILES: CCCCCCCCCCCCCCCCOP(=O)([O-])OCC[N+](C)(C)C [Miltefosine, reference compound]
- IC50 ([1]; L. donovani infected macrophages, IJP: Drugs and Drug Resistance, 2018, 8, Issue 1, 81-86): 1800 ± 400 nM
- IC50 ([1]; L. donovani, data from IJP: Drugs and Drug Resistance, 2018, 8, 81-86): 1800 ± 400 nM
- IC50 [2]: 8060 nM
- IC50 [3]: 2010 nM
- IC50 [4]: 2160 nM
- IC50 [5]: 24000 nM
- IC50 [6]: 1810 nM
- IC50 [7]: 2160 nM
- IC50 [8]: 2690 nM
- IC50 [9]: 11300 nM
- IC50 [10]: 1810 nM
- IC50 [11]: 20300 nM
- IC50 [12]: 2010 nM
- IC50 [13]: 2070 nM
- IC50 ([14]; L. infantum infected macrophages, IJP: Drugs and Drug Resistance, 2018, 8, Issue 1, 81-86): 3500 ± 400 nM
- IC50 ([14]; L. infantum, data from IJP: Drugs and Drug Resistance, 2018, 8, 81-86): 3500 ± 400 nM
- % Parasite reduction Bone marrow (L. infantum; bone marrow): 92.1-99.0%
- % Parasite reduction Liver (L. infantum; liver): 97.0-98.2%
- % Parasite reduction Spleen (L. infantum; spleen): 95.7-99.5%
- CC50 (MRC-5SV2 cells): 38500 nM
